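48-hour exposure; five concentrations; linearly interpolated endpoints. The concentration for full growth arrest is given as TGI.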
What was measured:
Assay in all cases: growth of human tumour cells (NCI), 48 h
786-0 renal = tested on: 786-0 renal
A498 renal = tested on: A498 renal
A549 NSCLC = tested on: A549 NSCLC
ACHN renal = tested on: ACHN renal
BT-549 breast = tested on: BT-549 breast
CAKI-1 renal = tested on: CAKI-1 renal
CCRF-CEM leukemia = tested on: CCRF-CEM leukemia
COLO 205 colon = tested on: COLO 205 colon
DU-145 prostate = tested on: DU-145 prostate
EKVX NSCLC = tested on: EKVX NSCLC
HCC-2998 colon = tested on: HCC-2998 colon
HCT-116 colon = tested on: HCT-116 colon
HCT-15 colon = tested on: HCT-15 colon
HL-60(TB) leukemia = tested on: HL-60(TB) leukemia
HOP-62 NSCLC = tested on: HOP-62 NSCLC
HOP-92 NSCLC = tested on: HOP-92 NSCLC
HS 578T breast = tested on: HS 578T breast
HT29 colon = tested on: HT29 colon
IGROV1 ovarian = tested on: IGROV1 ovarian
K-562 leukemia = tested on: K-562 leukemia
KM12 colon = tested on: KM12 colon
LOX IMVI melanoma = tested on: LOX IMVI melanoma
M14 melanoma = tested on: M14 melanoma
MALME-3M melanoma = tested on: MALME-3M melanoma
MDA-MB-231 breast = tested on: MDA-MB-231 breast
MDA-MB-435 = tested on: MDA-MB-435
MDA-N = tested on: MDA-N
MOLT-4 leukemia = tested on: MOLT-4 leukemia
NCI-H226 lung = tested on: NCI-H226 lung
NCI-H23 lung = tested on: NCI-H23 lung
NCI-H460 lung = tested on: NCI-H460 lung
NCI/ADR-RES ovarian = tested on: NCI/ADR-RES ovarian
OVCAR-3 ovarian = tested on: OVCAR-3 ovarian
OVCAR-4 ovarian = tested on: OVCAR-4 ovarian
OVCAR-5 ovarian = tested on: OVCAR-5 ovarian
OVCAR-8 ovarian = tested on: OVCAR-8 ovarian
PC-3 prostate = tested on: PC-3 prostate
SK-MEL-2 melanoma = tested on: SK-MEL-2 melanoma
SK-MEL-28 melanoma = tested on: SK-MEL-28 melanoma
SK-MEL-5 melanoma = tested on: SK-MEL-5 melanoma
SN12C renal = tested on: SN12C renal
SNB-19 CNS = tested on: SNB-19 CNS
SNB-75 CNS = tested on: SNB-75 CNS
SR leukemia = tested on: SR leukemia
SW-620 colon = tested on: SW-620 colon
T-47D breast = tested on: T-47D breast
TK-10 renal = tested on: TK-10 renal
U251 CNS = tested on: U251 CNS
UACC-257 melanoma = tested on: UACC-257 melanoma
UACC-62 melanoma = tested on: UACC-62 melanoma
UO-31 renal = tested on: UO-31 renal
MCF7 breast = tested on: MCF7 breast
NCI-H522 lung = tested on: NCI-H522 lung
RPMI-8226 leukemia = tested on: RPMI-8226 leukemia
RXF 393 renal = tested on: RXF 393 renal
SF-268 CNS = tested on: SF-268 CNS
SF-295 CNS = tested on: SF-295 CNS
SF-539 CNS = tested on: SF-539 CNS
SK-OV-3 ovarian = tested on: SK-OV-3 ovarian

## COc1ccc(CCCNC(=O)Cc2ccccc2CO)cc1OC
786-0 renal
  TGI: > 100 µM
A498 renal
  TGI: > 100 µM
A549 NSCLC
  TGI: > 100 µM
ACHN renal
  TGI: > 100 µM
BT-549 breast
  TGI: > 100 µM
CAKI-1 renal
  TGI: > 100 µM
CCRF-CEM leukemia
  TGI: > 100 µM
COLO 205 colon
  TGI: > 100 µM
DU-145 prostate
  TGI: > 100 µM
EKVX NSCLC
  TGI: > 100 µM
HCC-2998 colon
  TGI: > 100 µM
HCT-116 colon
  TGI: > 100 µM
HCT-15 colon
  TGI: > 100 µM
HL-60(TB) leukemia
  TGI: > 100 µM
HOP-62 NSCLC
  TGI: > 100 µM
HOP-92 NSCLC
  TGI: > 100 µM
HS 578T breast
  TGI: > 100 µM
HT29 colon
  TGI: > 100 µM
IGROV1 ovarian
  TGI: > 100 µM
K-562 leukemia
  TGI: > 100 µM
KM12 colon
  TGI: > 100 µM
LOX IMVI melanoma
  TGI: > 100 µM
M14 melanoma
  TGI: > 100 µM
MALME-3M melanoma
  TGI: > 100 µM
MDA-MB-231 breast
  TGI: > 100 µM
MDA-MB-435
  TGI: > 100 µM
MDA-N
  TGI: > 100 µM
MOLT-4 leukemia
  TGI: > 100 µM
NCI-H226 lung
  TGI: > 100 µM
NCI-H23 lung
  TGI: > 100 µM
NCI-H460 lung
  TGI: > 100 µM
NCI/ADR-RES ovarian
  TGI: > 100 µM
OVCAR-3 ovarian
  TGI: > 100 µM
OVCAR-4 ovarian
  TGI: > 100 µM
OVCAR-5 ovarian
  TGI: > 100 µM
OVCAR-8 ovarian
  TGI: > 100 µM
PC-3 prostate
  TGI: > 100 µM
SK-MEL-2 melanoma
  TGI: > 100 µM
SK-MEL-28 melanoma
  TGI: > 100 µM
SK-MEL-5 melanoma
  TGI: > 100 µM
SN12C renal
  TGI: > 100 µM
SNB-19 CNS
  TGI: > 100 µM
SNB-75 CNS
  TGI: > 100 µM
SR leukemia
  TGI: > 100 µM
SW-620 colon
  TGI: > 100 µM
T-47D breast
  TGI: > 100 µM
TK-10 renal
  TGI: > 100 µM
U251 CNS
  TGI: > 100 µM
UACC-257 melanoma
  TGI: > 100 µM
UACC-62 melanoma
  TGI: > 100 µM
UO-31 renal
  TGI: > 100 µM

## C/C(=N\NC(=S)N1CCN(c2ccccn2)CC1)c1cccc(C)n1
786-0 renal
  TGI: 3.31 µM
A498 renal
  TGI: 6.33 µM
A549 NSCLC
  TGI: 18.5 µM
ACHN renal
  TGI: 12.7 µM
BT-549 breast
  TGI: 18 µM
CCRF-CEM leukemia
  TGI: > 100 µM
COLO 205 colon
  TGI: 11.3 µM
DU-145 prostate
  TGI: 14.6 µM
EKVX NSCLC
  TGI: 10.5 µM
HCC-2998 colon
  TGI: 24.8 µM
HCT-116 colon
  TGI: 10.5 µM
HCT-15 colon
  TGI: 16 µM
HL-60(TB) leukemia
  TGI: 17.6 µM
HOP-62 NSCLC
  TGI: 20.1 µM
HOP-92 NSCLC
  TGI: 14.3 µM
HS 578T breast
  TGI: 43.5 µM
HT29 colon
  TGI: 14.5 µM
IGROV1 ovarian
  TGI: 4.01 µM
K-562 leukemia
  TGI: > 38.2 µM
KM12 colon
  TGI: 18 µM
LOX IMVI melanoma
  TGI: 17.8 µM
M14 melanoma
  TGI: 9.23 µM
MALME-3M melanoma
  TGI: 19.3 µM
MCF7 breast
  TGI: 12.4 µM
MDA-MB-231 breast
  TGI: 13.1 µM
MDA-MB-435
  TGI: 17.4 µM
MDA-N
  TGI: 17.8 µM
MOLT-4 leukemia
  TGI: 53.2 µM
NCI-H226 lung
  TGI: 9.38 µM
NCI-H23 lung
  TGI: 21.8 µM
NCI-H460 lung
  TGI: 11.9 µM
NCI-H522 lung
  TGI: 0.59 µM
NCI/ADR-RES ovarian
  TGI: 27.5 µM
OVCAR-5 ovarian
  TGI: 13.3 µM
OVCAR-8 ovarian
  TGI: 14.1 µM
RPMI-8226 leukemia
  TGI: 12.6 µM
RXF 393 renal
  TGI: 4.98 µM
SF-268 CNS
  TGI: 19.9 µM
SF-295 CNS
  TGI: 12.3 µM
SF-539 CNS
  TGI: 6.12 µM
SK-MEL-2 melanoma
  TGI: 6.78 µM
SK-MEL-28 melanoma
  TGI: 25.3 µM
SK-MEL-5 melanoma
  TGI: 7.06 µM
SK-OV-3 ovarian
  TGI: 21.4 µM
SN12C renal
  TGI: 21.9 µM
SNB-19 CNS
  TGI: 19.9 µM
SNB-75 CNS
  TGI: 12.5 µM
SR leukemia
  TGI: > 100 µM
SW-620 colon
  TGI: 14.2 µM
T-47D breast
  TGI: 35 µM
TK-10 renal
  TGI: 21.5 µM
U251 CNS
  TGI: 17.5 µM
UACC-257 melanoma
  TGI: 16.8 µM
UACC-62 melanoma
  TGI: 7.16 µM
UO-31 renal
  TGI: 30.6 µM

## CN(C)CCNC(=O)c1cccc(NC(=O)c2ccccc2)c1[N+](=O)[O-]
786-0 renal
  TGI: > 100 µM
A498 renal
  TGI: > 100 µM
A549 NSCLC
  TGI: > 100 µM
ACHN renal
  TGI: > 100 µM
BT-549 breast
  TGI: > 100 µM
CAKI-1 renal
  TGI: > 100 µM
CCRF-CEM leukemia
  TGI: > 100 µM
COLO 205 colon
  TGI: > 100 µM
HCC-2998 colon
  TGI: > 100 µM
HCT-116 colon
  TGI: > 100 µM
HCT-15 colon
  TGI: > 100 µM
HL-60(TB) leukemia
  TGI: > 100 µM
HOP-62 NSCLC
  TGI: > 100 µM
HS 578T breast
  TGI: > 100 µM
HT29 colon
  TGI: > 100 µM
IGROV1 ovarian
  TGI: > 100 µM
KM12 colon
  TGI: > 100 µM
M14 melanoma
  TGI: > 100 µM
MALME-3M melanoma
  TGI: 27.3 µM
MCF7 breast
  TGI: > 100 µM
MDA-MB-231 breast
  TGI: > 100 µM
MDA-MB-435
  TGI: > 100 µM
MDA-N
  TGI: > 100 µM
MOLT-4 leukemia
  TGI: > 100 µM
NCI-H226 lung
  TGI: > 100 µM
NCI-H23 lung
  TGI: > 100 µM
NCI-H460 lung
  TGI: > 100 µM
NCI-H522 lung
  TGI: > 100 µM
NCI/ADR-RES ovarian
  TGI: > 100 µM
OVCAR-3 ovarian
  TGI: 64.8 µM
OVCAR-5 ovarian
  TGI: > 100 µM
OVCAR-8 ovarian
  TGI: > 100 µM
PC-3 prostate
  TGI: > 100 µM
SF-268 CNS
  TGI: > 100 µM
SF-295 CNS
  TGI: > 100 µM
SK-MEL-2 melanoma
  TGI: > 100 µM
SK-MEL-28 melanoma
  TGI: > 100 µM
SK-MEL-5 melanoma
  TGI: > 100 µM
SK-OV-3 ovarian
  TGI: > 100 µM
SN12C renal
  TGI: > 100 µM
SNB-19 CNS
  TGI: > 100 µM
SNB-75 CNS
  TGI: > 100 µM
SW-620 colon
  TGI: > 100 µM
T-47D breast
  TGI: > 100 µM
TK-10 renal
  TGI: > 100 µM
U251 CNS
  TGI: > 100 µM
UACC-257 melanoma
  TGI: > 100 µM
UACC-62 melanoma
  TGI: > 100 µM
UO-31 renal
  TGI: > 100 µM

— PubChem BioAssay (NCI)
